Consider one molecule from patent US10238688B2, “Combination therapies for bladder cancer” (GENEDIA BIOTECH CO. LTD., priority 2015, dated 2019).

Holding throughout (type): in vivo, BALB/C male nude mice
Experiment [1] has as its system CD34 positive vascular structures in tumor xenografts. The experiment in a line: CD34 immunohistochemistry of tumor xenografts. The note with it: relative to PBS controls; day 28. The protocol: (§1) Immunostaining was performed on 5 μm slices of formalin fixed paraffin-embedded tumor xenografts using antibodies from Gene Tech Company (Shanghai, China) against both Ki67 and CD34. Pictures were taken by LEICA DM 4000B microscope and the relative level of each protein was calculated using LEICA software. The relative staining per antibody (in percentage) in the […] tumors was calculated and plotted.
(§2) This example then compared the in vivo anticancer activity of EH/Ci/Mi regimen with its mono- and bi-drug counterparts on the 5637, UM-UC-3, or Biu87 cells derived tumor xenografts in nude mice. Since there is no established conversion rule for the drug dose in cell culture to in nude mice, this example used 75 μg per mouse for the mono-drug treatments and 25 μg per drug per mouse for both bi-drug and tri-drug combinations, based on the maximum tolerated drug dose recommended for these drugs. To minimize the inter-mouse bias's effect on tumor growth, three different BCa cell line-derived tumor xenografts were individually established subcutaneously on the back of the twelve mice (FIG. 5A). […] The tumor volumes were measured once every three days and were normalized by the volume on day 7. […]

Experiment [2] concerns UM-UC-3 derived tumor xenografts. The experiment in a line: UM-UC-3 tumor xenograft growth in nude mice. The procedure:
(§3) Each experiment was performed three times. All animals were adult BALB/C male nude mice of 8-12 weeks of age and experiments were performed in accordance with the National Institutes of Health Guide for the Care and Use of Laboratory Animals and approved by the animal research committee of Harbin Medical University, China.
(§4) Cells (1×10^6-7th/100 μL) embedded in BD Matrigel™ Matrix were subcutaneously injected at three sites in the back of each mouse (3-4 mice per treatment). On day 7-12th following cell injection, the animals were treated with the different drugs by an intraperitoneal injection, which was repeated every three days. Tumor volumes were monitored/calculated using the equation V=W^2L×0.5 (where W and L represent the […] tumor diameters (mm)) and then plotted. The tumor mass mice were weighed, fixed/sliced for immunohistochemistry after sacrificing the animals.
(§5) Two sets of tumor xenograft/nude mice studies were carried out. The in vivo study involves […]. Both mean±S.D of tumor volume and mass were calculated. […]
(§6) This example then compared the in vivo anticancer activity of EH/Ci/Mi regimen with its mono- and bi-drug counterparts on the 5637, UM-UC-3, or Biu87 cells derived tumor xenografts in nude mice. […] The tumor volumes were measured once every three days and were normalized by the volume on day 7. […]

In experiment [3] the test system is 5637 derived tumor xenografts. The experiment in a line: 5637 tumor xenograft growth in nude mice. The protocol: as §3, §4, §5, §6
Experiment [4] deals with Biu87 derived tumor xenografts. The experiment can be described thus: Biu87 tumor xenograft growth in nude mice. The procedure:
as §3, §4, §5, §6

Experiment [5] concerns Ki67-positive cells in tumor xenografts. The experiment can be described thus: Ki67 immunohistochemistry of tumor xenografts. The note with it: relative to PBS controls; day 28. The procedure: as §1, §2

As for `N.N.[Cl][Pt][Cl]` [Ci, (SP-4-2)-diamminedichloroplatinum(II)], the “numbers of CD34 positive vascular structures in tumor xenografts” value in experiment [1] is reported as “reduced”. Besides, the relative tumor weight in experiment [2] (UM-UC-3 derived tumor, day 28, tri-drug group taken as 1) was 3.37; in experiment [3] (5637 derived tumor, day 28, tri-drug group taken as 1), 1.79; in experiment [4] (Biu87 derived tumor, day 28, tri-drug group taken as 1), 1.48. Also, the “increase in tumor volume on day 28th (relative tumor volume)” value was 10.58 in experiment [2] (UM-UC-3 xenograft, normalized by volume on day 7, i.p. at three-day interval, 75 μg per mouse mono-drug, 25 μg per drug per mouse combinations) and 4.95 in experiment [4] (Biu87 xenograft, normalized by volume on day 7, i.p. at three-day interval, 75 μg per mouse mono-drug, 25 μg per drug per mouse combinations). The relative tumor volume in experiment [3] (5637 xenograft, normalized by volume on day 7, i.p. at three-day interval, 75 μg per mouse mono-drug, 25 μg per drug per mouse combinations) amounted to 6.2. In addition, the “percentage of Ki67-positive cells in tumor xenografts” value in experiment [5] is recorded as “reduced”.
